# Results published in patent US20110226998A1, “ELECTROWETTING ELEMENTS” (LIQUAVISTA B.V., priority 2008, published 2011).
# Experiment: Photo-bleaching test according to standard IEC 60068-2-9, Atlas Suntest CPS/XLS+ instrument, reflectance measurement
# Type: physicochemical
# Conditions: sample thickness 4 micrometres, 1 centimetre diameter, 0.1M in decane; exposure 0, 4, 24, 48, 120 and 240 hours
# From the text: Exemplary dye compounds will now be described below, including a schematic illustration of each dye. Whilst exemplary anthraquinone dyes are given below, it is to be appreciated that corresponding napthoquinone dyes are envisaged also within the scope of the present invention, namely including napthoquinones having the same molecular structure of the right hand (as illustrated herein) benzene ring as the molecular structure of the right hand (as illustrated herein) benzene ring of the anthrquinone examples described below. The stereochemistry of each dye is not limited to that shown; it is to be appreciated that molecular structures of the dyes having different stereochemistry are within the scope of the dyes of the invention. […] For each of the exemplary dyes, data is given as evidence of their reduced photo-bleaching properties. […] The periods of time given for testing are scalable to equate to a number of weeks of exposing the tested dyes to solar radiation. For example, the period of exposure of 240 hours given below approximately equates to continuously exposing the dyes to solar radiation in London, UK, for 14 weeks, taking an average yearly solar radiation quantity as 1,000 kWh/m^2/year. In reality, taking into account that a display application is not used or is used inside for a major part of the time, this equates to a few years of practical lifetime.
# (§1) This dye is cyan in colour. Upon testing, a sample of the dye with a thickness of 4 micrometres, a circular area of 1 centimetre diameter and a concentration of 0.1M in decane, was measured for reflectance of radiation with wavelengths from 380 to 750 nano-metres, at 5 nano-metre increments. This test was run separately for different time periods, namely for 0, 4, 24, 48, 120 and 240 hours. The reflectance of the dye for the range of wavelengths tested was approximately the same for each different testing time period.
# as §1, with “purple” for “cyan”, “48, and” for “48,”, “120” for “120 and 240”
# as §1, with “magenta” for “cyan”
# as §1, with “blue” for “cyan”, “48, and” for “48,”, “120” for “120 and 240”
# as §1, with “blue/cyan” for “cyan”, “48, and” for “48,”, “120” for “120 and 240”
row,"photo-bleaching (reflectance of radiation, 380 to 750 nano-metres, compared over testing time periods)",SMILES
1,does not exhibit photo-bleaching,CCCCCCCc1cc(NC2CCCCC2)c2c(c1NC1CCCCC1)C(=O)c1ccccc1C2=O [Example 4]
2,does not exhibit photo-bleaching,CCCCC(CC)CNc1ccc(NCC(CC)CCCC)c2c1C(=O)c1ccccc1C2=O (stereo not drawn) [Example 1]
3,does not exhibit photo-bleaching,CCCCC(CC)Cc1cc(NC2CCCCC2)c2c(c1NC1CCCCC1)C(=O)c1ccccc1C2=O (stereo not drawn) [Example 3]

# Same assay, conditions: sample thickness 4 micrometres, 1 centimetre diameter, 0.1M in decane; exposure 0, 4, 24, 48, and 120 hours
row,"photo-bleaching (reflectance of radiation, 380 to 750 nano-metres, compared over testing time periods)",SMILES
1,does not exhibit photo-bleaching,CCCCC(CC)CNc1cc(CC(CC)CCCC)c(N)c2c1C(=O)c1ccccc1C2=O (stereo not drawn) [Example 5]
2,does not exhibit photo-bleaching,CCCCC(CC)CNc1cc(CC(CC)CCCC)c(O)c2c1C(=O)c1ccccc1C2=O (stereo not drawn) [Example 2]
3,does not exhibit photo-bleaching,CCCCC(CC)CNc1cc2c(c3c1C(=O)c1ccccc1C3=O)NC1CC(C)CCC1C2(C)C (stereo not drawn) [Example 6]
